Measured values: article PMC4563558, “Discovery of a series of novel phenylpiperazine derivatives as EGFR TK inhibitors” (Scientific Reports, 2015)

Tests used:
MCF-7 = assay: MTT antiproliferation assay, MCF-7; assay type: cell-based; settings: Homo sapiens, MCF7, 72 h exposure, read-out: IC50 ± SD, MCF-7
Protocol: (§1) To test the antiproliferative activities of the synthesized compounds (see supplementary Scheme S1 and S2), the target compounds were evaluated in vitro antiproliferation assays against three human cancer cell lines (MCF-7, HeLa and A549) and one human normal lung cell line.
(§2) The in vitro anticancer activities of the prepared compounds against MCF-7, HeLa and A549 cell lines were evaluated as described in the literature[23] with some modifications. Target tumor cells were grown to log phase in DMEM medium supplemented with 10% fetal bovine serum. After reaching a dilution of 1 × 10^5 cells mL^−1 with the medium, 100 μL of the obtained cell suspension was added to each well of 96-well culture plates. Subsequently, incubation was performed at 37 °C in 5% CO2 atmosphere for 48 h before the cytotoxicity assessment. Tested samples at preset concentrations were added to 6 wells with Erlotinib being employed as a positive reference. After 72 h exposure period, 25 μL of PBS containing 2.5 mg mL^−1 of MTT was added to each well. After 4 h, the medium was replaced by 150 μL DMSO to dissolve the purple formazan crystals produced. The absorbance at 570 nm of each well was measured with an ELISA plate reader. The data represented the mean of three independent experiments in triplicate and were expressed as means ± SD. The IC50 value was defined as the concentration at which 50% of the cells could survive.

HeLa = assay: MTT antiproliferation assay, HeLa; assay type: cell-based; settings: Homo sapiens, 72 h exposure, read-out: IC50 ± SD, HeLa
Protocol: as §1, §2

A549 = assay: MTT antiproliferation assay, A549; assay type: cell-based; settings: Homo sapiens, 72 h exposure, read-out: IC50 ± SD, A549
Protocol: as §1, §2

Lung cells = assay: MTT assay, human normal lung cell line; assay type: cell-based; settings: read-out: IC50 ± SD, Lung cells
Protocol: as §1, §2

EGFR = target: T1, EGFR (Homo sapiens, UniProt P00533); assay: Kinase selectivity assay (kit), EGFR; assay type: biochemical; settings: read-out: Inhibition of EGFR IC50
T1 construct: purchased Bio-Swamp
T1 sequence (P00533 25-1210): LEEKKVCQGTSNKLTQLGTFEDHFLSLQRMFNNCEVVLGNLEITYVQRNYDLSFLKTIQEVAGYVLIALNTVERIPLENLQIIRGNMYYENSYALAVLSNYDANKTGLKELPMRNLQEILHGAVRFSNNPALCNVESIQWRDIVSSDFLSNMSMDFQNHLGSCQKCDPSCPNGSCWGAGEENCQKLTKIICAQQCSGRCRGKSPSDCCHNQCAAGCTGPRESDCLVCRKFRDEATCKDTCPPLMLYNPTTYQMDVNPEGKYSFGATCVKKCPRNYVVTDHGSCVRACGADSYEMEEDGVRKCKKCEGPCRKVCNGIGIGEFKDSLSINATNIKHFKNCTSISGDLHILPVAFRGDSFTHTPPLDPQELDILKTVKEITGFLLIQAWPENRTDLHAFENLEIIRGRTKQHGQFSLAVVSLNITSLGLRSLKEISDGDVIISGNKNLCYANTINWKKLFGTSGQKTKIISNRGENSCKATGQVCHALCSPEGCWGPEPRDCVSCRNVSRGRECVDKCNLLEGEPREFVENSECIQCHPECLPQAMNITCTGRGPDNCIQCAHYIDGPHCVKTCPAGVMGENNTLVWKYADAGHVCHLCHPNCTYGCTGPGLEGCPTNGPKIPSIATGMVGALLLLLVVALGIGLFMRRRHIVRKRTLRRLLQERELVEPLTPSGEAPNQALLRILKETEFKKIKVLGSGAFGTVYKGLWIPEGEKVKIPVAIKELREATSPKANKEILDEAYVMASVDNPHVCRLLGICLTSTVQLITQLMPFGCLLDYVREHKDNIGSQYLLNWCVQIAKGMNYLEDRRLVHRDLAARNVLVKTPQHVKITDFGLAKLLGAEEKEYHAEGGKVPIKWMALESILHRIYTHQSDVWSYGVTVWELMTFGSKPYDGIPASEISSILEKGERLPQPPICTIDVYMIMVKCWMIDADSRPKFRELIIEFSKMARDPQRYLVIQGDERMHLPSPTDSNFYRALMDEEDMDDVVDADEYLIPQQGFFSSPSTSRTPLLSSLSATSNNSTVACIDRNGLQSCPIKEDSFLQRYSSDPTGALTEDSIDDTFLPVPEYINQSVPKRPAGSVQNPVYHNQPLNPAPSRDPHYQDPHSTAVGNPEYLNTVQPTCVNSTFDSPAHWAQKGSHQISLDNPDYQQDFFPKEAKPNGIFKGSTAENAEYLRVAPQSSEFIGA
Protocol: (§3) The EGFR, VEGFR2, bFGF and PDGFR Kinase Assay Kit were purchased from Bio-Swamp. The experiments were performed according to the manufacturer’s instructions.

VEGFR2 = target: T2, VEGFR2 (Homo sapiens, UniProt P35968); assay: Kinase selectivity assay (kit), VEGFR2; assay type: biochemical; settings: read-out: Inhibition of VEGFR2 IC50
T2 construct: purchased Bio-Swamp
T2 sequence (P35968 20-1356, species assumed): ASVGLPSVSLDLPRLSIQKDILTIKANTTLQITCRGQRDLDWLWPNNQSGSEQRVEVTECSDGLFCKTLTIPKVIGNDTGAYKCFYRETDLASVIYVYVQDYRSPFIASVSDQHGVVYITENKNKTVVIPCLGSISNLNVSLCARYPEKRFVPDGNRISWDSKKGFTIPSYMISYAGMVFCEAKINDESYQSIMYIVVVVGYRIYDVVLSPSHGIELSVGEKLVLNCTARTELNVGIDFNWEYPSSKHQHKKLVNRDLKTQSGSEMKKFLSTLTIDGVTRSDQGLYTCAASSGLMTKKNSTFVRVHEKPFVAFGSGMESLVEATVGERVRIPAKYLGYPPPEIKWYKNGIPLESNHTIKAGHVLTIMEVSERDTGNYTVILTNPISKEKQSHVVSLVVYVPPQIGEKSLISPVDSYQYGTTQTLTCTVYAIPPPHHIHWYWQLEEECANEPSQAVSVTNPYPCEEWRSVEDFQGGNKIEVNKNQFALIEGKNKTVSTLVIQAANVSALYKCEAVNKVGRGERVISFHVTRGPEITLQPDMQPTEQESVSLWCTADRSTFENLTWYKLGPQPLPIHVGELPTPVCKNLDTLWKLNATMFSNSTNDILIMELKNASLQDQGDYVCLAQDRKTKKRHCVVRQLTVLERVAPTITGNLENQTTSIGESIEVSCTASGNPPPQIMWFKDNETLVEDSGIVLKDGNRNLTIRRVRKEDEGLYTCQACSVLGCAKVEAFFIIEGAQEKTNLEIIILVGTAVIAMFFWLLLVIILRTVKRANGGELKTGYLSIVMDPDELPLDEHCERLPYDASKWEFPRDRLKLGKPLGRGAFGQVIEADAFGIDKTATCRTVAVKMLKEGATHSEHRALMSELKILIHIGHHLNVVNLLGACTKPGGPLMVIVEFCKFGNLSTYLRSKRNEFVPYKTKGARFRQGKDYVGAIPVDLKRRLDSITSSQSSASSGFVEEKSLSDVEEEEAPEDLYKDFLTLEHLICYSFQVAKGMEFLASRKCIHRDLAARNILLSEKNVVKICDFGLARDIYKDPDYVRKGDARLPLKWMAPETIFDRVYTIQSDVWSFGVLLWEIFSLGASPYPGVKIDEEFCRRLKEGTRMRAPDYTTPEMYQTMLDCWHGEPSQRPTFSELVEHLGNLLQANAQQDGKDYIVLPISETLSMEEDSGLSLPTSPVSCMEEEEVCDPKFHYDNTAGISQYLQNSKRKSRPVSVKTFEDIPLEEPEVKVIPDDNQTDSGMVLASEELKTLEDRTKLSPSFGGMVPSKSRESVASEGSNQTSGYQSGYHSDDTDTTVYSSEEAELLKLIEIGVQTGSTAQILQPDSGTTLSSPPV
Protocol: (§4) To validate whether the above anti-proliferative effect was produced by interaction of EGFR protein and the synthesized compounds, the synthesized compounds were evaluated for their abilities to inhibit the activity of four protein kinases relevant to cancer: EGFR, VEGFR2, bFGF, PDGFR. […] Additionally, the activity data inferred that the IC50 values of these compounds shared a similar tendency with their relevant IC50 values of anti-proliferative assay. […] Therefore, we could conclude that the synthesized inhibitors can inhibit the function of EGFR and the anti-proliferative effect was produced partly by interaction of EGFR protein and the compounds.
as §3

bFGF = assay: Kinase selectivity assay (kit), bFGF; assay type: biochemical; settings: read-out: Inhibition of bFGF IC50
Protocol: as §4, §3

PDGFR = assay: Kinase selectivity assay (kit), PDGFR; assay type: biochemical; settings: read-out: Inhibition of PDGFR IC50
Protocol: as §4, §3

Erythrocytes = assay: Hemolysis test; assay type: cell-based; settings: human erythrocytes, 3 h incubation
Protocol: Hemolytic activity was assayed using fresh capillary human blood. Erythrocytes were collected by centrifuging the blood three times in chilled phosphate buffered saline (PBS at 4 °C) at 1000 × g for 10 min. The final pellet was resuspended in PBS to give a 2% w/v solution. Using a microtitre plate, 100 μL of the erythrocyte solution was added to dextran, PLL, stearyl-PLL or stearyl-PLL+LDL (1–1000/μg/mL) in a volume of […]. Samples were then incubated for 3 h and the microtitre plate was centrifuged then at 1000 × g for 10 min and the supernatants (100 μL) transferred into a new microtitre plate. Hemoglobin release was determined spectrophotometrically using a microtitre plate reader (absorbance at 550 nm). Results were expressed as the amount of released hemoglobin induced by the compounds as a percentage of the total. Hemolysis test was tested according to the guide of biological evaluation of medical device (SFDA, China).

in vitro = assay type: cell-based; settings: mouse
Protocol: The cytotoxic activity in vitro was measured against mouse fibroblast NIH-3T3 cells using the MTT assay. Cells were cultured in a 96-well plate at a density of 5 × 10^5 cells and different concentrations of compounds were respectively added to each well. The incubation was permitted at 37 °C, 5% CO2 atmosphere for 24 h before the cytotoxicity assessments. 20 μL MTT reagent (4 mg/mL) was added per well 4 h before the end of the incubation. Four hours later, the plate was centrifuged at 1200 rcf for 5 min and the supernatants were removed, each well was added with 200 μL DMSO. The absorbance was measured at a wavelength of 490 nm (OD 490 nm) on an ELISA microplate reader. Three replicate wells were used for each concentration and each assay was measured three times, after which the average of IC50 was calculated.

[1] = Acute oral toxicity, bodyweights; assay type: in vivo; settings: mice; for Bodyweights 0 day ± SD: day 0; for Bodyweights 7 days ± SD: day 7
Protocol: Before the acute toxicity experiment, mice were stopped being served food but water was kept for 3 h. The test substances were dissolved in maize germ oil[24]. The preliminary experiment was performed as follows: Four dose levels, 100, 500, 2000, and 5000 mg/kg body weight and three mice for each level were used. We observed the death and evident toxicity in 7 days to determine the general concentration range. Then the administration doses were graded with geometric progression for ease of the calculation of LD50. Mice were randomly divided into groups (10 mice/group). […] The control groups received maize germ oil only. After the administration, food was withheld for 2 h.

[2] = tested on: MCF-7, HeLa and A549 cell lines; assay: Anticancer activities discussed in text (cell line not specified); assay type: cell-based, human; settings: comparison within series and with positive control
Protocol: According to the data presented in Table 1, it could be concluded that the activity of the tested compounds may be correlated to the variation and modifications of structure.
as §2

A549 cells = assay: Tumor volume in nude mice inoculated with A549 cells; assay type: in vivo; settings: 20 mg/kg/2 days, day 14
Protocol: To further evaluate the antitumor effect of compound 3p in vivo, we performed an animal study. Mice were inoculated subcutaneously with A549 cells (5.0 × 10^6) on their shoulders. […]. […] […].
Male BALB/c nude mice, 35–40 days old and weighing 18–22 g, were supplied by Shanghai Laboratory Animal Limited Company. The mice were raised in air-conditioned rooms under controlled lighting (12 h lighting/day) and were fed with standard laboratory food and water ad libitum. Before injection into the mice, the lung cancer cells (A549) were harvested by trypsinization and washed three times with cold serum-free medium and then injected in a total volume of 0.1 mL using a 1-mL latex-free syringe (BD) within 30 min of harvest. Mice were inoculated subcutaneously with A549 cells (5.0 × 10^6) on their shoulders. When the tumor had increased to 100 mm^3 , the mice were equally randomized into 4 groups (with 6 mice/group): saline tumor control group; compound 3p 20 mg/kg/2 days group; compound 3p 40 mg/kg/2 days group; […]. The control group received 0.9% normal saline. Tumor size was measured once every 2 days in two per-pendicular dimensions with Vernier calipers and converted to tumor volume (TV) using the formula: (ab^2)/2, where a and b refer to the longer and shorter dimensions, respectively. The body weight of the animals was measured twice a week at the same time as the tumor dimension measurement and the mortality was monitored daily. After the treatments, all mice were killed and weighed simultaneously, and then tumor was segregated and weighed.

## COc1cc(OC)nc(NC(=O)CN2CCN(c3ccccc3F)CC2)n1 [3c, N-(4,6-Dimethoxypyrimidin-2-yl)-2-(4-(2-fluorophenyl)piperazin-1-yl)acetamide]
MCF-7
  IC50: 4.13 ± 0.01 µM
HeLa
  IC50: 2.69 ± 0.1 µM
A549
  IC50: 0.55 ± 0.02 µM
Lung cells
  IC50: 178 ± 2.02 µM
EGFR
  IC50: 1.35 ± 0.006 µM
VEGFR2
  IC50: 8.94 ± 0.73 µM
bFGF
  IC50: 25.4 ± 2.34 µM
PDGFR
  IC50: 33.8 ± 1.94 µM
Erythrocytes
  Hemolysis LC30 (lytic concentration 30%): >10000 µg/mL
In vitro
  IC50 at 24 h: 230 ± 3.15 µM
[1]
  Bodyweights 0 day ± SD: 21.09 ± 1.16 g
  Bodyweights 7 days ± SD: 26.09 ± 0.93 g

## COc1cc(OC)nc(NC(=O)CN2CCN(c3ccccc3)CC2)n1 [3d, N-(4,6-Dimethoxypyrimidin-2-yl)-2-(4-phenylpiperazin-1-yl)acetamide]
MCF-7
  IC50: 9.87 ± 1 µM
HeLa
  IC50: 10.2 ± 0.28 µM
A549
  IC50: 2.17 ± 0.02 µM
Lung cells
  IC50: 136 ± 3.15 µM
EGFR
  IC50: 5.11 ± 0.03 µM
VEGFR2
  IC50: 10.1 ± 1.08 µM
bFGF
  IC50: 18.5 ± 2.11 µM
PDGFR
  IC50: 8.5 ± 0.09 µM
Erythrocytes
  Hemolysis LC30 (lytic concentration 30%): >10000 µg/mL
In vitro
  IC50 at 24 h: 150 ± 2.56 µM
[1]
  Bodyweights 0 day ± SD: 21.18 ± 2.15 g
  Bodyweights 7 days ± SD: 25.57 ± 1.56 g
[2]
  Anticancer / antitumor activity (in words): worst anticancer activity

## COc1cc(OC)nc(NC(=O)CN2CCN(c3ccccc3OC)CC2)n1 [3e, N-(4,6-Dimethoxypyrimidin-2-yl)-2-(4-(2-methoxyphenyl)piperazin-1-yl)acetamide]
MCF-7
  IC50: 2.57 ± 0.02 µM
HeLa
  IC50: 1.55 ± 0.006 µM
A549
  IC50: 1.97 ± 0.001 µM
Lung cells
  IC50: 189.3 ± 1.78 µM
EGFR
  IC50: 1.01 ± 0.004 µM
VEGFR2
  IC50: 5.33 ± 0.05 µM
bFGF
  IC50: 11.5 ± 0.89 µM
PDGFR
  IC50: 10 ± 1.17 µM
Erythrocytes
  Hemolysis LC30 (lytic concentration 30%): >10000 µg/mL
In vitro
  IC50 at 24 h: 173 ± 5.31 µM
[1]
  Bodyweights 0 day ± SD: 21.11 ± 1.34 g
  Bodyweights 7 days ± SD: 25.34 ± 1.15 g
[2]
  Anticancer / antitumor activity (in words): better anticancer activities compared to the positive control

## COc1cc(OC)nc(NC(=O)CN2CCN(c3ccc([N+](=O)[O-])cc3)CC2)n1 [3f, N-(4,6-Dimethoxypyrimidin-2-yl)-2-(4-(4-nitrophenyl)piperazin-1-yl)acetamide]
MCF-7
  IC50: 2.09 ± 0.01 µM
HeLa
  IC50: 4.99 ± 0.07 µM
A549
  IC50: 0.08 ± 0.003 µM
Lung cells
  IC50: 202 ± 4.05 µM
EGFR
  IC50: 2.12 ± 0.08 µM
VEGFR2
  IC50: 7.67 ± 0.07 µM
bFGF
  IC50: 21.5 ± 0.69 µM
PDGFR
  IC50: 24.5 ± 2.56 µM
Erythrocytes
  Hemolysis LC30 (lytic concentration 30%): >10000 µg/mL
In vitro
  IC50 at 24 h: 155 ± 3.05 µM
[1]
  Bodyweights 0 day ± SD: 20.57 ± 1.43 g
  Bodyweights 7 days ± SD: 27.25 ± 1.50 g

## COc1ccc(N2CCN(CC(=O)Nc3nc(OC)cc(OC)n3)CC2)cc1 [3i, N-(4,6-Dimethoxypyrimidin-2-yl)-2-(4-(4-methoxyphenyl)piperazin-1-yl)acetamide]
MCF-7
  IC50: 2.98 ± 0.09 µM
HeLa
  IC50: 0.9 ± 0.07 µM
A549
  IC50: 2.22 ± 0.05 µM
Lung cells
  IC50: 197.5 ± 1.74 µM
EGFR
  IC50: 0.91 ± 0.006 µM
VEGFR2
  IC50: 3.99 ± 0.08 µM
bFGF
  IC50: 22.35 ± 0.1 µM
PDGFR
  IC50: 31.8 ± 3.12 µM
Erythrocytes
  Hemolysis LC30 (lytic concentration 30%): >10000 µg/mL
In vitro
  IC50 at 24 h: 198.5 ± 1.13 µM
[1]
  Bodyweights 0 day ± SD: 21.33 ± 0.67 g
  Bodyweights 7 days ± SD: 25.83 ± 1.30 g
[2]
  Anticancer / antitumor activity (in words): better anticancer activities compared to the positive control

## COc1cc(OC)nc(NC(=O)CN2CCN(c3ccccn3)CC2)n1 [3m, N-(4,6-Dimethoxypyrimidin-2-yl)-2-(4-(pyridin-2-yl)piperazin-1-yl)acetamide]
MCF-7
  IC50: 2.87 ± 0.004 µM
HeLa
  IC50: 5.11 ± 0.006 µM
A549
  IC50: 1.55 ± 0.004 µM
Lung cells
  IC50: 165.8 ± 0.59 µM
EGFR
  IC50: 2.55 ± 0.67 µM
VEGFR2
  IC50: 7.23 ± 0.78 µM
bFGF
  IC50: 3.8 ± 0.036 µM
PDGFR
  IC50: 50 ± 4.76 µM
Erythrocytes
  Hemolysis LC30 (lytic concentration 30%): >10000 µg/mL
In vitro
  IC50 at 24 h: 182 ± 3.22 µM
[1]
  Bodyweights 0 day ± SD: 22.43 ± 1.02 g
  Bodyweights 7 days ± SD: 22.09 ± 1.02 g

## COc1cc(OC)nc(NC(=O)CN2CCN(c3cccc(C(F)(F)F)c3)CC2)n1 [3r, N-(4,6-Dimethoxypyrimidin-2-yl)-2-(4-(3-(trifluoromethyl)phenyl)piperazin-1-yl)acetamide]
MCF-7
  IC50: 4.97 ± 0.01 µM
HeLa
  IC50: 4.02 ± 0.01 µM
A549
  IC50: 0.33 ± 0.07 µM
Lung cells
  IC50: 150 ± 3.03 µM
EGFR
  IC50: 1.96 ± 0.006 µM
VEGFR2
  IC50: 6.95 ± 0.68 µM
bFGF
  IC50: 33.9 ± 3.59 µM
PDGFR
  IC50: 3.87 ± 0.92 µM
Erythrocytes
  Hemolysis LC30 (lytic concentration 30%): >10000 µg/mL
In vitro
  IC50 at 24 h: 185 ± 2.16 µM
[1]
  Bodyweights 0 day ± SD: 21.00 ± 1.01 g
  Bodyweights 7 days ± SD: 25.07 ± 1.21 g

## N.N.[Cl][Pt][Cl] [DDCP, reference compound]
Erythrocytes
  Hemolysis LC30 (lytic concentration 30%): >10000 µg/mL

## C#Cc1cccc(Nc2ncnc3cc(OCCOC)c(OCCOC)cc23)c1 [Erlotinib, reference compound]
MCF-7
  IC50: 0.15 ± 0.03 µM
HeLa
  IC50: 0.11 ± 0.01 µM
A549
  IC50: 0.1 ± 0.0004 µM
Lung cells
  IC50: 195.2 ± 1.27 µM
A549 cells
  Reduction of the growth of tumors: 49.09%
